This is an account of results in paper PMC12388125, “Design, Synthesis, and Pharmacological Activity of the N-(4-(1H-1,2,4-Triazol-1-yl)phenyl)-substituted-amide Derivatives” (Molecules, 2025).

Usually ED50 stands for the dose at which the effect has come halfway, by size or by number of responders.

“Also recorded” adds a separate entry of the source. Where two headings read alike, the source gives them in different places. Where only a bound is given, the exact number is not on record here.

Series [1] relates to mice. Kind of series: Elevated plus maze (EPM) test. Type of series: in vivo. To be noted: n = 6. The text has this: The EPM experiment is a method for evaluating whether experimental animals have an anxiety response. The principle is that, in the face of new things, mice will generate curiosity to explore (open arm), while they have a nature of darkness (closed arm), the conflict behavior between the two occurs between exploration and avoidance, resulting in anxiety. Anxious behavior can be evaluated by comparing the retention time of mice in the open and closed arms.
Flumazenil is a selective BZ antagonist with a chemical structure similar to that of BZs, which acts on central benzodiazepine (BZ) receptors and thus blocks the receptors without producing BZ-like effects.
The apparatus consisted of a black acrylic maze with two opposite open arms (50×10 cm) and two opposite closed arms (50×10×40 cm) disposed like a plus sign with a central square of 10 cm2. Entire maze wa s elevated 50 cm above the floor. The test consisted in placing the rat in the central square of the maze facing one closed arm and allowing it to explore during 5 min. This procedure wa s performed in a quiet and dimly illuminated room. The scores analysed we r e the time spent in open and closed arms, and the number of entries to both […]
widely used as an anxiety index (time spent in open arms relative to the time spent in open […]
and closed arms). […]

Series [2] deals with MES-induced seizures. Nature of the series: animal or person. Type of series: in vivo, Kunming mice. To be noted: for minimal effective dose: ip, doses 30, 100, 300 mg/kg, read-out: MES, dose at which at least one of three animals was protected. How it is done:
(§1) Pharmacological tests were performed using two experimental animal models, MES and scPTZ, which were divided into three dosage groups of 30, 100, and 300 mg/kg, and the anticonvulsant activity of the target compounds 6a–m and 9a–g, after 0.5 and 4 h of administration, respectively, were tested. Carbamazepine, which is effective in the MES model, was chosen as a positive control, and ethosuximide, which is effective in the scPTZ model, was chosen as a positive control. […]
Protection against the spread of
extension component of the seizure. […]

The test system of series [3] is pentylenetetrazole-induced clonic seizures. Nature of the series: animal or person. Type of series: in vivo, Kunming mice. The following applies: for minimal effective dose: read-out: scPTZ, dose at which at least one of three animals was protected. How it is done:
as §1
The test compound wa s
Absence of clonic spasms indicated a […]

For series [4], the system named is GABA content in brain tissue. Nature of the series: GABA estimation in brain tissue. Type of series: in vivo, Wistar rats. To be noted: 30 mg/kg, n = 5.
Protocol: The data obtained from the experiments were analyzed and processed and plotted using GraphPad Prism 8 software.
We i g h about 0.05 g of tissue sample in a homogenizer, add 450 µL of extracting solution
to homogenize, homogenize, transfer to an EP tube, mark the liquid level scale, and heat for 2
hours at 95°C. After heating, centrifuge at 8000 × g for 10 min and remove the supernatant for
① Standard tube: Ta k e 30 µL of different concentrations of standards and add them to
the corresponding 1.5 mL EP tube. Measurement tube: Ta k e 30 µL of sample supernatant and
add it to 1.5 mL EP tube. ② Add 50 µL of buffer solution and 40 µL of Chromogenic Agent A
to each tube in step, mix we l l , and let stand at room temperature for 5 min. ③ Add 60 µL of
Chromogenic Agent B to each tube in step, mix we l l , and heat at 95°C for 10 min, then cool at
ice bath. ④ Add 200 µL of supplementary solution to each tube in step and mix well. ⑤ Ta k e
200 µL into the corresponding we l l s of the enzyme plate, and measure the OD va l u e of each
Series [5] concerns mice. Nature of the series: Rotarod (ROT) neurotoxicity test. To be noted: for NT (neurotoxicity, ROT), dose at which at least one of three animals showed neurotoxicity: doses 100, 300 mg/kg. In general terms: The rotarod test checks motor coordination on a turning rod.
The mark [6] stands for this setting: Mus musculus, 0.5 h after administration.
Where [7] appears, read: Mus musculus, 4 h after administration.
Setting [8] is: Mus musculus, sc, 0.5 h after administration, doses 30, 100, 300 mg/kg.
[9] abbreviates: Mus musculus, sc, 4 h after administration, doses 30, 100, 300 mg/kg.

As to `CCOC(=O)c1ncn2c1CN(C)C(=O)c1cc(F)ccc1-2` [Flumazenil, reference compound], the “EPM % of time in open arms vs control” value in series [1] (5 mg/kg, listed as FMZ) is on record as “did not show significant differences; also recorded: did not show a significant difference”.

`Cc1cccc(C(=O)Nc2ccc(-n3cncn3)cc2)c1` [Compound 6l, N-(4-(1H-1,2,4-triazol-1-yl)phenyl)-3-methylbenzamide] gave an ED50 (MES) in series [2] (0.5 h, value (95% CI)) of 9.1 mg/kg. The “PI (TD50/ED50) MES” value in series [2] (Kunming, mouse, in vivo, 0.5 h) is reported as 45.9. Further, the minimal effective dose in series [2] (setting [6]), in series [2] (setting [7]), in series [3] (setting [8]) and in series [3] (setting [9]) was 30 mg/kg each time. Moreover, the ED50 in series [2] (Mus musculus, 0.5 h, as given in the text) came out at 9.1 mg/kg; in series [3] (Mus musculus, sc, 0.5 h, as given in the text, read-out: ED50 (scPTZ)), 19 mg/kg. In addition, the “EPM % of time in open arms vs control” value in series [1] (0.5 mg/kg) was “showed a significant difference”; in series [1] (6l 0.5 mg/kg + FMZ 5 mg/kg), “did not show a significant difference”. Moreover, in series [1] (6l 0.5 mg/kg + FMZ 5 mg/kg), the “EPM time in open arm vs 6l group” value is “significantly shortened the time of the experimental animals in the open arm”. The same compound displayed an ED50 (scPTZ) in series [3] (0.5 h, value (95% CI)) of 19 mg/kg. The “PI (TD50/ED50) scPTZ” value in series [3] (Kunming, mouse, in vivo, 0.5 h) was 22.1. Also, the “GABA content in brain tissue vs control” value in series [4] (2 h after administration) is on record as “do not show significant differences”; in series [4] (7 d continuous administration), “showed significant differences”. Moreover, in series [5] (0.5 h, value (95% CI)), the “TD50 (ROT)” value is reported as 419.5 (456.1–385.9) mg. Also, the “NT (neurotoxicity, ROT), dose at which at least one of three animals showed neurotoxicity” value (from here on “NT (neurotoxicity, ROT), dose at which”) in series [5] (0.5 h after administration) and in series [5] (4 h after administration) was >300 mg/kg in each case.

`CCC(=O)Nc1ccc(-n2cncn2)cc1` [Compound 9a, N-(4-(1H-1,2,4-triazol-1-yl)phenyl)propionamide]: the minimal effective dose in series [2] (setting [6]) came out at 100 mg/kg; in series [2] (setting [7]), 300 mg/kg; in series [3] (setting [8]), 100 mg/kg; in series [3] (setting [9]), 100 mg/kg. Moreover, the “NT (neurotoxicity, ROT), dose at which” value in series [5] (0.5 h after administration) and in series [5] (4 h after administration) was >300 mg/kg each time.

Turning to `CN1C(=O)CN=C(c2ccccc2)c2cc(Cl)ccc21` [Diazepam, reference compound], in series [1] (1 mg/kg), the “EPM % of time in open arms vs control” value is reported as “showed a significant difference”.

For `O=C(Nc1ccc(-n2cncn2)cc1)c1ccc(Cl)cc1` [Compound 6d, N-(4-(1H-1,2,4-triazol-1-yl)phenyl)-4-chlorobenzamide], the minimal effective dose was 300 mg/kg in series [2] (setting [6]), 300 mg/kg in series [2] (setting [7]), 300 mg/kg in series [3] (setting [8]) and > 300 mg/kg in series [3] (setting [9]). The “scPTZ, dose at which at least one of three animals was protected” value in series [3] (4 h after administration, doses 30, 100, 300 mg/kg) was “inactive”. Also, the “NT (neurotoxicity, ROT), dose at which” value in series [5] (0.5 h after administration) and in series [5] (4 h after administration) was >300 mg/kg each time.

`O=C(Nc1ccc(-n2cncn2)cc1)c1ccccc1` [Compound 6a, N-(4-(1H-1,2,4-triazol-1-yl)phenyl)benzamide]: the minimal effective dose in series [2] (setting [6]) came out at 300 mg/kg; in series [2] (setting [7]), 300 mg/kg; in series [3] (setting [8]), 100 mg/kg; in series [3] (setting [9]), 100 mg/kg. Besides, the “NT (neurotoxicity, ROT), dose at which” value in series [5] (0.5 h after administration) and in series [5] (4 h after administration) was >300 mg/kg throughout.

In the case of `CCCCCCCC(=O)Nc1ccc(-n2cncn2)cc1` [Compound 9f, N-(4-(1H-1,2,4-triazol-1-yl)phenyl)octanamide], the minimal effective dose in series [2] (setting [6]) is 100 mg/kg; in series [2] (setting [7]), 300 mg/kg; in series [3] (setting [8]) it was 300 mg/kg; in series [3] (setting [9]), > 300 mg/kg. Further, the “NT (neurotoxicity, ROT), dose at which” value in series [5] (0.5 h after administration) and in series [5] (4 h after administration) was >300 mg/kg throughout.
